Source: PMC6351562, “Structure, function, and inhibition of drug reactivating human gut microbial β-glucuronidases” (Scientific Reports, 2019)
Read-outs that look alike come from different tables or passages of the source.

Key:
Format in all cases: biochemical
[1] = molecular target: T1, Bacteroides uniformis GUS (BuGUS) (Bacteroides uniformis, UniProt A0A078SUX9); experiment: In vitro DCF-G processing assay (UPLC); conditions: DCF-G as substrate, 400 µM; pH 5.5; 37 °C
T1 sequence (A0A078SUX9 32-886): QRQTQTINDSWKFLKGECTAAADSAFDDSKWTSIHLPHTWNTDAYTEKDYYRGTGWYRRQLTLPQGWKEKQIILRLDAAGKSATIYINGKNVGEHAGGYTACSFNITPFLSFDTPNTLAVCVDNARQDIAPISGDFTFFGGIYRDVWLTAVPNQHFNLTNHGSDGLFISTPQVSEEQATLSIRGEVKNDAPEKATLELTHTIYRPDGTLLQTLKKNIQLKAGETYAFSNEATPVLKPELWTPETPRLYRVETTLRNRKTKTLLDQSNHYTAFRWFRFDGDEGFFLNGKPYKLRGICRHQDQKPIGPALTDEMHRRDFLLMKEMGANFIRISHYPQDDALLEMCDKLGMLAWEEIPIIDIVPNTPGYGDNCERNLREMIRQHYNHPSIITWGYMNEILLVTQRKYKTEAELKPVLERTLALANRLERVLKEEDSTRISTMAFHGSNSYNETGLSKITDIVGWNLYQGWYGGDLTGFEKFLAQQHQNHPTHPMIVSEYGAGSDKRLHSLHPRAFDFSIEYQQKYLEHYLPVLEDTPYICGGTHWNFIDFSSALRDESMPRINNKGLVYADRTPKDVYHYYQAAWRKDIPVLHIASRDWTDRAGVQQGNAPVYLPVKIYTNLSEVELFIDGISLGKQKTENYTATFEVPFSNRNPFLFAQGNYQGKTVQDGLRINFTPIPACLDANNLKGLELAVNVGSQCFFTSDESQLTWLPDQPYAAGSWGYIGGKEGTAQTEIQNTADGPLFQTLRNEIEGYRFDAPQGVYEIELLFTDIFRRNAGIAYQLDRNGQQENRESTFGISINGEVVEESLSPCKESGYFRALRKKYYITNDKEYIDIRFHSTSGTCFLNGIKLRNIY

[2] = molecular target: T2, Bacteroides dorei GUS (BdGUS) (Phocaeicola dorei, UniProt I9FNR0); experiment: In vitro inhibition assay (pNPG hydrolysis); conditions: for IC50: pNPG 900 µM
T2 sequence (I9FNR0 21-875): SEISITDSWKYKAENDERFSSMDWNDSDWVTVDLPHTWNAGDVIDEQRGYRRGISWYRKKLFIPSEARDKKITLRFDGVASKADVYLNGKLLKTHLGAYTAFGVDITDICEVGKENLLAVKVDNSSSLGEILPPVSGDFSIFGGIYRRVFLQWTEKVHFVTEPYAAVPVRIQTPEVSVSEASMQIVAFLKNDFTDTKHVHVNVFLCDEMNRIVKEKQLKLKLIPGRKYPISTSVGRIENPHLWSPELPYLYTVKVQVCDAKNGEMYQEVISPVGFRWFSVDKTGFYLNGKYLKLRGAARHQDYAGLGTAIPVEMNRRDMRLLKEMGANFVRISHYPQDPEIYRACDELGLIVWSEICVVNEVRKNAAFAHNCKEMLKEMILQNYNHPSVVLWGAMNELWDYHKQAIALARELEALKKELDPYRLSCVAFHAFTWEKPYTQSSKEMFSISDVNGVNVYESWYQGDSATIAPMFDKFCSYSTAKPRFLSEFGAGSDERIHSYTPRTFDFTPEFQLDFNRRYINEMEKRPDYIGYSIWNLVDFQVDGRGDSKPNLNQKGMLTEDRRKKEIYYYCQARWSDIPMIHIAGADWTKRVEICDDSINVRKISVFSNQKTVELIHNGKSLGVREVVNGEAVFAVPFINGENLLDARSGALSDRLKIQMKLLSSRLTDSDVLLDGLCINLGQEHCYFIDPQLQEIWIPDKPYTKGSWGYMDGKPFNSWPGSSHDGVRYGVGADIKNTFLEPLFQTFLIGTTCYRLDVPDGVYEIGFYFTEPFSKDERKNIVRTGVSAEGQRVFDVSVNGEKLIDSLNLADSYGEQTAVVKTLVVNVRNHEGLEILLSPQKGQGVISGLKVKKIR

[3] = molecular target: T3, Faecalibacterium prausnitzii GUS (FpGUS) (Faecalibacterium duncaniae, UniProt C7H4D2); experiment: In vitro inhibition assay (pNPG hydrolysis); conditions: for IC50: pNPG 900 µM
T3 sequence (C7H4D2 1-608): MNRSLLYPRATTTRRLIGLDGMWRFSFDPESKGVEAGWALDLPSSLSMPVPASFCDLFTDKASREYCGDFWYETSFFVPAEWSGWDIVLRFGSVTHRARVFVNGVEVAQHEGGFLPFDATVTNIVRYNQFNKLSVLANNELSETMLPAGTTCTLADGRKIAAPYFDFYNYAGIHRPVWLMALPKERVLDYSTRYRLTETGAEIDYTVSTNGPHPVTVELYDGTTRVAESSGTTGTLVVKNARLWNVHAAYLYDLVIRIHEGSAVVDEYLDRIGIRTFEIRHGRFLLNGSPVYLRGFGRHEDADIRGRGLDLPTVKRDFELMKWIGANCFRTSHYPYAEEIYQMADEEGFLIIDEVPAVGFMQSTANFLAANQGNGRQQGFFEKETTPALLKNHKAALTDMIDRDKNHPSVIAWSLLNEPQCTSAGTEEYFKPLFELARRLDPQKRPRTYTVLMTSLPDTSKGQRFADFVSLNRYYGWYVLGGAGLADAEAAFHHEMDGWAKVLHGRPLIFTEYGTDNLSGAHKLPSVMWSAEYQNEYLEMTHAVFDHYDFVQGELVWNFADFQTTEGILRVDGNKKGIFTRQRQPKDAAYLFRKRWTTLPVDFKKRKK

[4] = molecular target: T1, Bacteroides uniformis GUS (BuGUS); experiment: In vitro inhibition assay (pNPG hydrolysis)
[5] = molecular target: T4, Streptococcus agalactiae GUS (SaGUS) (Streptococcus agalactiae serotype V, UniProt Q8E0N2); experiment: In vitro inhibition assay (pNPG hydrolysis); conditions: for IC50: pNPG 900 µM
T4 construct: 6x His; made in house
T4 sequence (Q8E0N2 whole entry): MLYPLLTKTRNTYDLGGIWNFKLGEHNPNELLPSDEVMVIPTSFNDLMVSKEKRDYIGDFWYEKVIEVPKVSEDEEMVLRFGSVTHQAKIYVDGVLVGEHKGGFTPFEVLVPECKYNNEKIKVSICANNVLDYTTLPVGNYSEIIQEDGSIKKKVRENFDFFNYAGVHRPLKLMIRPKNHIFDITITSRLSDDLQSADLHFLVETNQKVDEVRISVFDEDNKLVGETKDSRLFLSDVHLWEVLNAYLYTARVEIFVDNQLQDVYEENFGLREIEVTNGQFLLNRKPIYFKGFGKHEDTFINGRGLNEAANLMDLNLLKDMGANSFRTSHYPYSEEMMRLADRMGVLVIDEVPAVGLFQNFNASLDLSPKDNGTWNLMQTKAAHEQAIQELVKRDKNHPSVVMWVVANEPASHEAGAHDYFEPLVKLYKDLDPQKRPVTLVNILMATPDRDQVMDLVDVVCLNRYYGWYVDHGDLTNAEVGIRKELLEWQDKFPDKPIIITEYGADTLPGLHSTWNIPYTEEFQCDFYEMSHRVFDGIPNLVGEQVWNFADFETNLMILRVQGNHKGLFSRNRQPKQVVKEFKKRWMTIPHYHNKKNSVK

E. coli GUS (EcGUS) = E. coli GUS (EcGUS) (Escherichia coli, UniProt P05804); experiment: In vitro inhibition assay (pNPG hydrolysis); conditions: for IC50: pNPG 900 µM, 1 hour end point
Chain of E. coli GUS (EcGUS) (P05804 whole entry): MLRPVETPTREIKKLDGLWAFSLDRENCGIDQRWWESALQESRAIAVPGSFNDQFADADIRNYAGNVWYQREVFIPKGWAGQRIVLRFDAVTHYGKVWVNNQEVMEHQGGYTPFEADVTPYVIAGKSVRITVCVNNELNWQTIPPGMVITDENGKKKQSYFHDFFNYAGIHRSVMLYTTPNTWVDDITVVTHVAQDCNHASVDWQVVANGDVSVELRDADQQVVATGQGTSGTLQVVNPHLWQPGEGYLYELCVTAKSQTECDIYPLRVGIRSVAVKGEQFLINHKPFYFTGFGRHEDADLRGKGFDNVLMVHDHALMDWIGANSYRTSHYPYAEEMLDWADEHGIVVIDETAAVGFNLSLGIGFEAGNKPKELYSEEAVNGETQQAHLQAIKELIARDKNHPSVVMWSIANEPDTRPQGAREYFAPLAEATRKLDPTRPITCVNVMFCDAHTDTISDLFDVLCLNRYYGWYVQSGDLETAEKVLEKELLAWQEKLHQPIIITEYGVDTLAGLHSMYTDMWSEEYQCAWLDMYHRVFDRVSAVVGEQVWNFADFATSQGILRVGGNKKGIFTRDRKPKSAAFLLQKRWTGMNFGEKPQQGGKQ

[6] = Inhibitor 1 (IC50, nM) pH 6.5, pH 6.5
[7] = Inhibitor 1 (IC50, nM) pH 7.5, pH 7.5
[8] = read-out: inhibition at 100 µM Inhibitor 1, 100 µM, pH 6.5 and 7.5
[9] = 100 µM, pH 6.5, read-out: inhibition at 100 µM UNC10201652
[10] = pH 6.5, read-out: UNC10201652 (IC50, nM) pH 6.5
[11] = pH 7.5, 1 hour end point, read-out: UNC10201652 (IC50, nM) pH 7.5

## O=C(Cc1ccccc1Nc1c(Cl)cccc1Cl)O[C@@H]1O[C@H](C(=O)O)[C@@H](O)[C@H](O)[C@H]1O [DCF-G, Diclofenac acyl β-D-glucuronide]
[1]
  Apparent kcat: 10 ± 1 s⁻¹

## CCOc1ccc(NC(=S)N(CCO)Cc2cc3cc(C)cc(C)c3[nH]c2=O)cc1 [Inhibitor 1]
[2]; [6]
  IC50: > 100000 nM
[2]; [7]
  IC50: > 100000 nM
[3]; [6]
  IC50: > 100000 nM
[3]; [7]
  IC50: > 100000 nM
[4]
  IC50: > 100000 nM
[4]; read-out: Inhibitor 1 (IC50, nM) pH 7.5, pH 7.5, pNPG 900 µM
  IC50: > 100000 nM
[5]; [6]
  IC50: > 25000 nM
[5]; [7]
  IC50: > 25000 nM
[5]; [8]
  inhibition at 100 µM: ≥ 80%
E. coli GUS (EcGUS); [8]
  inhibition at 100 µM: ≥ 80%

## C1CCc2c(c(N3CCOCC3)nc3sc4c(N5CCNCC5)nnnc4c23)C1 [UNC10201652]
[2]; [9]
  inhibition at 100 µM: < 80%
[2]; [10]
  IC50: > 100000 nM
[2]; [11]
  IC50: > 25000 nM
[3]; [9]
  inhibition at 100 µM: < 80%
[3]; [10]
  IC50: > 100000 nM
[3]; [11]
  IC50: > 3000 nM
[4]; UNC10201652, text in picture of Fig. 7c
  inhibition (in words): No Inhibition
[4]; pH 7.5, pNPG 900 µM, read-out: UNC10201652 (IC50, nM) pH 7.5
  IC50: > 100000 nM
[4]; read-out: UNC10201652 (IC50, nM) pH 6.5
  IC50: > 100000 nM
[5]; pH 6.5, 1 hour end point, read-out: UNC10201652 (IC50, nM) pH 6.5
  IC50: 450 ± 30 nM
[5]; [11]
  IC50: 133 ± 3 nM
E. coli GUS (EcGUS); UNC10201652, IC50 pH 6.5 vs pH 7.5
  decrease in potency from pH 7.5 to pH 6.5: 3 fold
E. coli GUS (EcGUS); [10]
  IC50: 310 ± 20 nM
E. coli GUS (EcGUS); pH 7.5, read-out: UNC10201652 (IC50, nM) pH 7.5
  IC50: 100 ± 8 nM
E. coli GUS (EcGUS); pH 7.5, times more potent than Inhibitor 1
  potency relative to Inhibitor 1: 19 times
